Experimental data taken from the Deep4Chem optical property database.

Test: solvent given as SMILES

## C1=Cc2ccccc2C(=Cc2ccc(-c3cc(-c4ccc(C=C5c6ccccc6C=Cc6ccccc65)cc4)c(-c4ccc(C=C5c6ccccc6C=Cc6ccccc65)cc4)cc3-c3ccc(C=C4c5ccccc5C=Cc5ccccc54)cc3)cc2)c2ccccc21
In C1CCOC1
  absorption maximum: 324 nm

## N#Cc1ccc(N)c(/C=C/C(F)(F)F)c1
In C1CCOC1
  absorption maximum: 348 nm

## [NH3+]C(Cc1ccc(O)cc1)C(=O)[O-] (stereo not drawn)
In O
  absorption maximum: 274 nm

## C(=C\c1ccc(N(c2ccccc2)c2ccccc2)cc1)/c1ccccc1
In CC#N
  absorption maximum: 362 nm
In CCCCCC
  absorption maximum: 362 nm

## COC(=O)c1nc2cnc(N)nc2n1Cc1ccccc1
In C1COCCO1
  absorption maximum: 331 nm
In CC#N
  absorption maximum: 330 nm
In CO
  absorption maximum: 335 nm
In ClCCl
  absorption maximum: 328 nm
In O
  absorption maximum: 325 nm

## CCCCCCCCC1(CCCCCCCC)c2cc(-c3ccccc3)ccc2-c2ccc(-c3ccccc3)cc21
In ClC(Cl)Cl
  absorption maximum: 327 nm

## Cc1cc(C)n2c1C=[N+]1[N+](=C3C=NC=CN3[B-]1(F)F)[B-]2(F)F
In ClCCl
  absorption maximum: 467 nm

## CCN(CC)c1ccc(Nc2cc3oc(-c4ccc(C#N)cc4)nc3c3ccccc23)cc1
In C1COCCO1
  absorption maximum: 420 nm
In CC(C)=O
  absorption maximum: 420 nm
In ClCCl
  absorption maximum: 420 nm
In c1ccccc1
  absorption maximum: 420 nm

## COC(=O)/C(C#N)=c1\s/c(=c2/s/c(=C(/C#N)C(=O)OC)c3cc(-c4ccccc4)sc23)c2sc(-c3ccccc3)cc12
In Cc1ccccc1
  absorption maximum: 605 nm

## O=C1c2ccccc2C2=Nc3cccc[n+]3[B-](F)(F)N12
In ClCCl
  absorption maximum: 361 nm

## [O-]c1ccccc1/C=N/c1ccccc1/N=C/c1ccccc1[O-]
In C1CCOC1
  absorption maximum: 380 nm

## O=S(=O)(c1cccc(-n2c3ccccc3c3ccccc32)c1)c1cccc(-n2c3ccccc3c3ccccc32)c1
In C1CCOC1
  absorption maximum: 323 nm
In Cc1ccccc1
  absorption maximum: 338 nm
In ClC(Cl)Cl
  absorption maximum: 338 nm

## Oc1ccccc1/N=C/c1ccccc1Oc1ccccc1
In C1CCCCC1
  absorption maximum: 353 nm
In C1CCOC1
  absorption maximum: 355 nm
In C1COCCO1
  absorption maximum: 367 nm
In CC#N
  absorption maximum: 349 nm
In CC(C)=O
  absorption maximum: 366 nm
In CC(C)CO
  absorption maximum: 352 nm
In CC(C)O
  absorption maximum: 352 nm
In CCCCC
  absorption maximum: 355 nm
In CCCCCC
  absorption maximum: 367 nm
In CCCCCCCCO
  absorption maximum: 355 nm
In CCCCCCCO
  absorption maximum: 354 nm
In CCCCCCO
  absorption maximum: 355 nm
In CCCCO
  absorption maximum: 353 nm
In CCCCOC(C)=O
  absorption maximum: 367 nm
In CCCO
  absorption maximum: 351 nm
In CCO
  absorption maximum: 350 nm
In CCOCC
  absorption maximum: 363 nm
In CN(C)C=O
  absorption maximum: 349 nm
In CO
  absorption maximum: 348 nm
In CS(C)=O
  absorption maximum: 373 nm
In Cc1ccccc1
  absorption maximum: 381 nm
In Cc1ccccc1C
  absorption maximum: 359 nm
In ClC(Cl)Cl
  absorption maximum: 356 nm
In ClCCl
  absorption maximum: 356 nm
In N#Cc1ccccc1
  absorption maximum: 357 nm
In OCCO
  absorption maximum: 349 nm
In c1ccccc1
  absorption maximum: 366 nm

## CCCCN1C(=S)c2cccc3c(OC)ccc(c23)C1=S
In CC#N
  absorption maximum: 476 nm
In CS(C)=O
  absorption maximum: 483 nm
In Cc1ccccc1
  absorption maximum: 468 nm

## COc1ccc(/C=C/c2cc(/C=C/c3ccc(OC)cc3)ncn2)cc1
In ClCCl
  absorption maximum: 359 nm

## O=C(O)C1=C(C(=O)O)C2=C[C@H]3c4ccccc4[C@]2(S1)c1ccccc13
In ClCCl
  absorption maximum: 410 nm

## O=C1c2ccccc2C2=Nc3cccc4cccc(c34)N12
In ClCCl
  absorption maximum: 448 nm

## c1ccc2c(c1)ccc1c3ccccc3ccc21
In ClCCl
  absorption maximum: 322 nm

## CC(C)(C)c1ccc2c(c1)c1cc(C(C)(C)C)ccc1n2-c1ccc(C#Cc2ccc(C#Cc3ccc(C=C(C#N)C#N)cc3)cc2)cc1
In ClCCl
  absorption maximum: 382 nm

## CCn1c(=O)nc2n(C)c3cc(C)ccc3nc-2c1=O
In C1COCCO1
  absorption maximum: 443 nm
In CC#N
  absorption maximum: 445 nm
In CO
  absorption maximum: 446 nm
In ClCCCl
  absorption maximum: 448 nm

## OCc1cc2c(cc3ccc4cccc5ccc2c3c45)[nH]1
In CCOC(C)=O
  absorption maximum: 388 nm

## Cc1cc2c(ccc3c(C)[n+](C)c(C)cc32)c(C)[n+]1C
In CC#N
  absorption maximum: 406 nm
